Laboratory results from the CheMixHub viscosity set.

Assay: xn = mol fraction of the nth substance listed

CCCCC(C)CC (centres undefined) + C1C[C@@H]2[C@H]3CC[C@H](C3)[C@@H]2C1
viscosity [mPa·s], 100 kPa
Details	x2 = 0.0994	x2 = 0.2004	x2 = 0.2996	x2 = 0.4001	x2 = 0.5008	x2 = 0.5973	x2 = 0.6998	x2 = 0.8016	x2 = 0.8999
293.15 K	0.577	0.657	0.755	0.882	1.044	1.249	1.521	1.882	2.336
298.15 K	0.547	0.62	0.708	0.824	0.971	1.154	1.399	1.722	2.125
303.15 K	0.519	0.589	0.667	0.772	0.905	1.065	1.294	1.585	1.945
308.15 K	0.495	0.557	0.63	0.726	0.848	1	1.201	1.457	1.788
313.15 K	0.472	0.53	0.597	0.685	0.796	0.935	1.118	1.357	1.65

CCCCN(CCCC)CCCC + C=C(C)C(=O)OC
303.15 K, 101 kPa
Details	viscosity [mPa·s]
x2 = 0.21	0.9849
x2 = 0.3945	0.8491
x2 = 0.4886	0.7874
x2 = 0.6041	0.7144
x2 = 0.7985	0.6078

COC(C)OC + CC1COC(=O)O1
298.15 K, 101 kPa
Details	viscosity [mPa·s]
x2 = 0.1205	4.91
x2 = 0.2621	6.2
x2 = 0.3779	7.53
x2 = 0.4836	9.05
x2 = 0.7185	13.82

C=CC#N + CC#N
303.15 K, 101.3 kPa
Details	viscosity [mPa·s]
x1 = 0.0965	0.3219
x1 = 0.2002	0.3193
x1 = 0.2977	0.3185
x1 = 0.3966	0.3178
x1 = 0.4928	0.3169
x1 = 0.5983	0.3154
x1 = 0.6941	0.3147
x1 = 0.7977	0.3136
x1 = 0.8997	0.3124

CCC(C)(C)O + CC#N
298.15 K, 101 kPa
Details	viscosity [mPa·s]
x1 = 0.1002	0.387
x1 = 0.1989	0.45
x1 = 0.2988	0.543
x1 = 0.3988	0.667
x1 = 0.4964	0.832
x1 = 0.6004	1.069
x1 = 0.6969	1.375
x1 = 0.7994	1.832
x1 = 0.8983	2.493
x1 = 0.958	3.032

CN(C)c1ccccc1 + CC(=O)CC(C)C
viscosity [mPa·s], 101 kPa
Details	303.15 K	308.15 K
x1 = 0.0745	0.632	0.557
x1 = 0.1256	0.711	0.628
x1 = 0.1856	0.8	0.711
x1 = 0.2652	0.906	0.813
x1 = 0.3202	0.971	0.875
x1 = 0.4012	1.052	0.953
x1 = 0.4852	1.108	1.013
x1 = 0.5612	1.143	1.049
x1 = 0.6504	1.165	1.072
x1 = 0.7214	1.167	1.079
x1 = 0.7958	1.168	1.079
x1 = 0.8625	1.169	1.081
x1 = 0.9125	1.17	1.086

C=CC#N + CC(=O)N(C)C
303.15 K, 101.3 kPa
Details	viscosity [mPa·s]
x1 = 0.0998	0.8246
x1 = 0.1982	0.7637
x1 = 0.297	0.7048
x1 = 0.3941	0.6449
x1 = 0.5009	0.5797
x1 = 0.5995	0.5228
x1 = 0.6984	0.4682
x1 = 0.7976	0.4132
x1 = 0.9005	0.3591

CN(C)c1ccccc1 + CC(=O)O
viscosity [mPa·s], 101 kPa
Details	x2 = 0.1008	x2 = 0.201	x2 = 0.3424	x2 = 0.3973	x2 = 0.4957	x2 = 0.5978	x2 = 0.7002	x2 = 0.7928	x2 = 0.8476	x2 = 0.9025
298.15 K	1.363	1.448	1.644	1.757	2.04	2.547	3.352	4.244	4.514	3.819
318.15 K	0.9835	1.02	1.106	1.16	1.281	1.488	1.831	2.192	2.327	2.085
